# Laboratory results reported in article PMC8900659 (Nature chemical biology, 2021).
# What was measured:
# [1] = system: KRAS mutant NB-4 cells; assay: pERK Western blot; settings: 4 h; Palm M 10 μM, ABD957 500 nM, PD901 10 nM
# [2] = system: NRAS mutant OCI-AML3 cells; assay: pERK Western blot; settings: 4 h; Palm M 10 μM, ABD957 500 nM, PD901 10 nM
# [3] = system: dynamically palmitoylated proteins; assay: MS-based global dynamic palmitoylation profiling in OCI-AML3 cells; settings: Palm M 10 μM, ABD957 500 nM, 1 h chase
# [4] = system: serine hydrolases; assay: in situ MS-ABPP in OCI-AML3 cells, global selectivity; settings: in situ 2 h; ABD957 500 nM, Palm M 10 μM, HDFP 20 μM
# [5] = system: wild type N-Ras palmitoylation; assay: MS-based dynamic palmitoylation profiling in NB-4 cells; format: cell-based, human
# [6] = system: ABHD17-DKO cells; assay: pERK Western blot; format: cell-based, human; settings: OCI-AML3 ABHD17-DKO, 4 h
# [7] = system: ABHD17s; assay: in vitro MS-ABPP, OCI-AML3 proteome; format: biochemical, human; settings: 1 and 10 μM, 30 min, particulate fraction
# [8] = biological target: LYPLA1 (Homo sapiens, UniProt O75608); assay: in vitro MS-ABPP, OCI-AML3 proteome; format: biochemical; settings: 1 and 10 μM, 30 min, particulate fraction
# Sequence of LYPLA1 (O75608 whole entry): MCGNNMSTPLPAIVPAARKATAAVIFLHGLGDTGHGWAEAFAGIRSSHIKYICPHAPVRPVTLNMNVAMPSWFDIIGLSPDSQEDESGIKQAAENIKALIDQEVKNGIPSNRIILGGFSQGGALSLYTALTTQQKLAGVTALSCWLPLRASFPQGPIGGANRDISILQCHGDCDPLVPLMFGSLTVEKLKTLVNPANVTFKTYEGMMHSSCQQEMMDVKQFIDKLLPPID
# [9] = biological target: LYPLA2 (Homo sapiens, UniProt O95372); assay: in vitro MS-ABPP, OCI-AML3 proteome; format: biochemical; settings: 1 and 10 μM, 30 min, particulate fraction
# Sequence of LYPLA2 (O95372 whole entry): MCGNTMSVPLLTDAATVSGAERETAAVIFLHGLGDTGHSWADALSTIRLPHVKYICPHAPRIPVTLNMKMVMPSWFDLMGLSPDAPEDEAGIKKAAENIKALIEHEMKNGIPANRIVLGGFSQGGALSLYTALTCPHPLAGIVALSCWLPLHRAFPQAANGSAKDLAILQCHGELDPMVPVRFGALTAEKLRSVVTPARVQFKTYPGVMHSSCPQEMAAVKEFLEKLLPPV
# [10] = biological target: T1, ABHD10 (Homo sapiens, UniProt Q9NUJ1); assay: in vitro MS-ABPP, OCI-AML3 proteome; format: biochemical; settings: 1 and 10 μM, 30 min, particulate fraction
# T1 sequence (Q9NUJ1 53-306): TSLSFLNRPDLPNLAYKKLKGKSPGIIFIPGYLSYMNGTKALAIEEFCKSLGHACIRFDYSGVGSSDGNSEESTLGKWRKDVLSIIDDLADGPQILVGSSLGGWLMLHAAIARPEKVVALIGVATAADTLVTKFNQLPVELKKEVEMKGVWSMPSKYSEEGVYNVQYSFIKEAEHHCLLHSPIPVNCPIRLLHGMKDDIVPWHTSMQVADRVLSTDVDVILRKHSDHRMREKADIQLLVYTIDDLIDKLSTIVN
# [11] = system: ABHD17A/B/C; assay: targeted MS-ABPP in situ time-course in ONK cells; format: cell-based, human; settings: 1 μM
smiles,measurement,setting,value
O=C(NOC[C@H](O)CO)c1ccc(F)c(F)c1Nc1ccc(I)cc1F [PD901],ERK phosphorylation,[1],blocked ERK phosphorylation in both cell lines
same,ERK phosphorylation,[2],blocked ERK phosphorylation in both cell lines
"CCCCCCCCCC[C@@H]1C(=O)O[C@H]1CCCCS(=O)(=O)CCCN(C)C [Palm M, Palmostatin M]",ERK phosphorylation,[1],but not in KRAS mutant NB-4 cells
same,stabilization of the 22 dynamically palmitoylated proteins,[3],most of these proteins were stabilized
same,global serine hydrolase selectivity in cells,[4],widespread serine hydrolase inhibition
same,sensitivity of dynamic palmitoylation of wild type N-Ras,[5],fully preserved
same,ERK phosphorylation,[2],substantially blocked
same,ERK phosphorylation,[6],maintained similar activity
CN(C)S(=O)(=O)c1cnn(C(=O)N2CCN(Cc3ccc(Cl)cc3)CC2)c1 [compound 5],inhibition of ABHD17s,[7],confirmed inhibition
same,inhibition of LYPLA1,[8],inhibition
same,inhibition of LYPLA2,[9],inhibition
C[C@H]1CN(Cc2ccc(C(F)(F)F)cc2N2CCOCC2)CCN1C(=O)n1ccc(S(=O)(=O)N(C)C)n1 [compound 8],ABHD10 as off-target,[10],introducing ABHD10
same,sustained inhibition of ABHD17A/B/C over 72 h,[11],did not produce sustained inhibition
